Laboratory results: patent US5252601A, “2-mercaptomethylene-tetrahydronaphthalene and indane-2-carboxamide derivatives as enkephalinase inhibitors” (Merrell Dow Pharmaceuticals Inc., priority 1992, dated 1993)
Where two headings read alike, the source gives them in different places.

Tests used:
Enkephalinase = target: T1, Enkephalinase (Rattus norvegicus, UniProt P07861); test: Enkephalinase inhibition, fluorometric assay with dansyl-D-AlaGly(p-nitro)PheGly substrate; assay type: biochemical; settings: 50 mM HEPES pH 7.4, 25° C.; for Ki: enzyme partially purified from rat kidney, 12 μM substrate
T1 construct: Enkephalinase is partially purified from rat kidney; from tissue; host or cells: rat kidney, microvilli fraction (Triton X-100 extract or proteolytic treatment, then Mono Q anion exchange)
T1 sequence (P07861 1-750): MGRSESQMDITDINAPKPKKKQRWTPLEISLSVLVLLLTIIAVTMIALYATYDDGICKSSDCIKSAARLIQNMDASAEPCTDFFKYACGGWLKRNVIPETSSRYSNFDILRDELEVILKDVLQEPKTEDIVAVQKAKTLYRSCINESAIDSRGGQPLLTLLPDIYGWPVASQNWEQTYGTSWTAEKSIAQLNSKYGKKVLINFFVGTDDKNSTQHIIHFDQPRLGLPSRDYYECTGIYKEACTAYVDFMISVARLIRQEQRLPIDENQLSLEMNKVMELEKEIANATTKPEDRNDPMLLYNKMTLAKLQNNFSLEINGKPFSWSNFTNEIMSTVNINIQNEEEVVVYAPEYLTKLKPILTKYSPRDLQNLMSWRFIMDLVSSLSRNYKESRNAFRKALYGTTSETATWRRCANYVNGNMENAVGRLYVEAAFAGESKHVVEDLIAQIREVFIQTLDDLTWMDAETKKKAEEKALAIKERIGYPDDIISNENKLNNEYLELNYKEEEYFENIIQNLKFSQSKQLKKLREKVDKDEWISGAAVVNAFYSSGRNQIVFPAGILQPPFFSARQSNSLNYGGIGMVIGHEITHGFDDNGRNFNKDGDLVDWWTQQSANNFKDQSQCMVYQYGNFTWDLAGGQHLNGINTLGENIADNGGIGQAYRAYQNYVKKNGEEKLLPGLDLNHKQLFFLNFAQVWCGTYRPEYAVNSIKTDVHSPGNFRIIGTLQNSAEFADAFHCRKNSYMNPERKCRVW
Source text: Enkephalinase is partially purified from rat kidney. The enzyme is extracted from the microvilli fraction by using Triton X-100 according to the method of Malfroy and Schwartz [J. Biol. Chem. 259, 14365-14370 (1984)] or by using a proteolytic treatment according to the method of Almenoff and Orlowski [Biochem. 22, 590-599 (1983)]. The enzyme is further purified by anion exchange chromatography (Mono QTM column, Pharmacia) using a Pharmacia FPLC system. The enzyme activity may be measured by the fluorometric methods of Florentin et al. [Anal. Biochem. 141, 62-69 (1984)] or of Almenoff and Orlowski [J. Neurochemistry 42, 151-157 (1984)]. […] The substrate (and inhibitor) is added from a concentrated stock solution in DMSO (up to […] DMSO final volume). The enzyme in a small volume (approximately 0.1 μg of FPLC purified protein) is added to initiate the reaction and the rate of fluorecense increase is recorded continuously using a fluorometer (excitation at 339 nm, emission at 562 nm).

[1] = test system: specific binding sites in various tissues including kidney, adrenal, aorta, and vascular smooth muscle; settings: Needleman, Hypertension 7, 469 (1985), cited from earlier work

Compound	Ki (Enkephalinase) [nM]	also measured
O=C(N[C@H]1CC[C@@H](C(=O)O)CC1)C1(CS)CCc2ccccc2C1 (relative stereo) [100,552, 4-[[[1,2,3,4-Tetrahydro-2-(mercarptomethyl)-2-naphthalenyl]carbonyl]amino]- cis-cyclohexanecarboxylic acid]	0.6	–
O=C(O)CCNC(=O)C1(CS)CCc2ccccc2C1 (stereo not drawn) [100,185, N-[[1,2,3,4-Tetrahydro-2-(mercarptomethyl)-2-naphthalenyl]carbonyl]-β-alanine]	≤ 0.2	–
O=C(O)CNC(=O)C1(CS)CCc2ccccc2C1 (centres unmarked) [100,250, N-[[1,2,3,4-Tetrahydro-2-(mercarptomethyl)-2-naphthalenyl]carbonyl]-glycine]	0.4	–
CC(C)[C@H](NC(=O)C1(CS)CCc2ccccc2C1)C(=O)O (stereo partly drawn) [101,782, N-[[1,2,3,4-Tetrahydro-2-(mercarptomethyl)-2-naphthalenyl]carbonyl]-L-valine]	2	–
C[C@H](NC(=O)C1(CS)CCc2ccccc2C1)C(=O)O (stereo partly drawn) [101,890, N-[[1,2,3,4-Tetrahydro-2-(mercarptomethyl)-2-naphthalenyl]carbonyl]-L-alanine]	0.3	–
ANP: family of naturally-occurring peptides which are involved in the homeostatic regulation of blood pressure, as well as sodium and water levels	–	Kd ([1]; affinities ranging from about, read-out: affinity (lower end of range)): ≥ 0.05 nM; Kd ([1]; affinities ranging to about, read-out: affinity (upper end of range)): ≤ 500 nM
dansyl-D-AlaGly(p-nitro)PheGly [reference compound]	–	Km (Enkephalinase; substrate of the assay): 40 µM
